From patent US20220280543A1, “DDX17 AND NLRC4 TARGETING FOR INFLAMMATORY DISEASES” (University of Virginia Patent Foundation, priority 2019, published 2022)
“Also recorded” adds a separate entry of the source. One block for each molecule: values may come before it.

How the values were obtained:
[1] = tested on: NLRC4 phosphorylation (site S533); assay: Alu RNA induced NLRC4 phosphorylation (S533) in BMDM pre-treated with kinase inhibitors, immunoblot; assay type: cell-based, mouse; conditions: BMDM pre-treated 1 hour with inhibitor at 2 μM or 5 μM, then Alu RNA transfection (100 pmol)
Protocol: (§1) FIG. 2. SINE RNA induced NLRC4 phosphorylation (site S533) through protein Kinase C Delta. BMDM cell pre-treated with the LRRK2 Kinase inhibitor gsk2578215a (GSK; 5-(2-Fluoro-4-pyridinyl)-2-(phenylmethoxy)-N-3-pyridinyl-benzamide; CAS Number 1285515-21-0; Sigma-Aldrich, St. Louis, Mo., United States of America) or the PKC delta inhibitor Rottlerin (CAS Number 82-08-6; Sigma-Aldrich) at 2 μM or 5 μM, and treated with Alu RNA (SEQ ID NO: 86) transfection or transfection reagent alone (Mock). NLRC4 phosphorylation (P-NLRC4) and supernatant caspase-1 activation were detected by SDS-PAGE. […] PKC delta inhibitor, Rottlerin blocked Alu RNA-induced NLRC4 phosphorylation and caspase-1 activation. The p-NLRC4 and caspase-1 (p20) bands were indicated with black arrows.
(§2) Previous studies have shown that NLRC4 inflammasome activation in response to Salmonella exposure requires two steps for its activation, phosphorylation on Ser533 residue of NLRC4 and NAIP mediated oligomerization of NLRC4. […] Moreover, treatment with SINE RNAs induced caspase-1 p20 cleavage, indicative of inflammasome activation (FIG. 2). For the subsequent experiments in this study, we used Alu RNA (SEQ ID NO: 86) as the stimulus to activate the NLRC4 inflammasome. To date, two kinases are reported to phosphorylate NLRC4 at S533: protein kinase C delta (PKCδ) and leucine rich repeat-containing kinase-2 (LRRK2). […]

[2] = tested on: caspase-1; assay: Alu RNA induced caspase-1 activation (p20 in supernatant) in BMDM pre-treated with kinase inhibitors; assay type: cell-based, mouse; conditions: BMDM pre-treated 1 hour with inhibitor at 2 μM or 5 μM, then Alu RNA transfection (100 pmol)
Protocol: as §1, §2

[3] = biological target: the molecule itself; assay: homo-oligomerization, Tris-glycine native PAGE, Alu RNA-transfected human RPE cells
Excerpt: FIGS. 24A and 24B. Alu RNA (SEQ ID NO: 86) induced NLRC4 activation in human RPE cells. To test whether Alu RNA (SEQ ID NO: 86) induces NLRC4 activation in human RPE, we transfected human RPE with Alu RNA (SEQ ID NO: 86 at 100 pmol). FIG. 24A. Immunofluorescence staining on NLRC4 show Alu RNA (SEQ ID NO: 86) induced cytosolic NLRC4 punctate in hRPE cells. The NLRC4 aggregates induced by Alu RNA (SEQ ID NO: 86) are indicated by white arrows. FIG. 24B. Alu RNA (SEQ ID NO: 86) induced NLRC4 (p-NLRC4) phosphorylation and oligomerization. Loading control show by Actin. NLRC4 oligomers were detected by Tris-glycine native PAGE. […] The band of NLRC4 oligomers is indicated by black arrow.

[4] = biological target: T1, human NLR family pyrin domain containing 3 (NLRP3) (human, UniProt Q96P20 1-1036); assay: proximity ligation assay (PLA) in human RPE cells transfected with biotinylated Alu RNA
T1 construct: Endogenous protein of human RPE cells
Protocol: FIG. 37. Alu RNA (SEQ ID NO: 86) induces the assembly of NLRC4 and NLRP3 complex. Human RPE cells were transfected with biotinylated Alu RNA (SEQ ID NO: 86 at 100 pmol) by LIPOFECTAMINE™ 3000 brand transfection reagent (Lipo; ThermoFisher Scientific). The assembly of NLRC4 and NLRP3 complex was evaluated by Proximity Ligation Assay (PLA). […] The signal of NLRC4-NLRP3 complexes is indicated by the white arrow.
Human RPE cells were treated with biotinylated Alu RNA (SEQ ID NO: 86 at 100 pmol). The assembly of NLRC4 and NLRP3 complex was evaluated by Proximity Ligation Assay (PLA).

T1 sequence (Q96P20 whole entry, the tested form may be a part): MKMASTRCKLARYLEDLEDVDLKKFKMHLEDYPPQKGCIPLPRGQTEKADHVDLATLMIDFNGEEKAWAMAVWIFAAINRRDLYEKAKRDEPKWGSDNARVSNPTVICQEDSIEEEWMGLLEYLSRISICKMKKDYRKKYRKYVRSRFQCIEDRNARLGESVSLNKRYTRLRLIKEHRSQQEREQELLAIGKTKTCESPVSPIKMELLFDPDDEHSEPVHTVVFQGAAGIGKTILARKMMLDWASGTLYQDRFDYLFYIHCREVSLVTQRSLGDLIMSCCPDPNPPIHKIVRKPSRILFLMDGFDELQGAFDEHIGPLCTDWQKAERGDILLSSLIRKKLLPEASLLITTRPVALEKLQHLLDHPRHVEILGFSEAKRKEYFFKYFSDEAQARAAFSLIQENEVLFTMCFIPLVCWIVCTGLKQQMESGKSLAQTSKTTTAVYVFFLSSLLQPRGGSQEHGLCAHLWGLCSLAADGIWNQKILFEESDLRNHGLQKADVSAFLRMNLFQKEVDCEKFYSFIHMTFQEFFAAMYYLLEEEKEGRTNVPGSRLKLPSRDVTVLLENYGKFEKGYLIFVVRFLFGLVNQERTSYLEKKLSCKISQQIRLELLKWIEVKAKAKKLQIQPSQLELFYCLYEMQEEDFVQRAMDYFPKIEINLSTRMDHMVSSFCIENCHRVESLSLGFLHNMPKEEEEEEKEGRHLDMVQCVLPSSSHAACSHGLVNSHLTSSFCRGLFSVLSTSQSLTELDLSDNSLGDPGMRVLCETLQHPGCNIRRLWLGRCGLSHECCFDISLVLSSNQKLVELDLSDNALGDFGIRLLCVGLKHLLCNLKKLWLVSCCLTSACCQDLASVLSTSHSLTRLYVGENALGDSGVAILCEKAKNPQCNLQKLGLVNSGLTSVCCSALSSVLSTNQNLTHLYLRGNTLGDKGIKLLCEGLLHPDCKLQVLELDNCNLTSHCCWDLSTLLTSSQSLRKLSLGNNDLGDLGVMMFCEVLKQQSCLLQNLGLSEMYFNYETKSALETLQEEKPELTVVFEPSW

Molecule: CC(=O)c1c(O)c(C)c(O)c(Cc2c(O)c3c(c(C(=O)/C=C/c4ccccc4)c2O)OC(C)(C)C=C3)c1O [Rottlerin]
Alu RNA induced phosphorylation of NLRC4 [1]: blocked; also recorded: inhibited
Alu RNA induced caspase-1 activation [2]: blocked; also recorded: inhibited

binding result [4]: binds
B1: human NLR family CARD domain containing 4 (NLRC4) (receptor)
chain: MNFIKDNSRALIQRMGMTVIKQITDDLFVWNVLNREEVNIICCEKVEQDAARGIIHMILKKGSESCNLFLKSLKEWNYPLFQDLNGQSLFHQTSEGDLDDLAQDLKDLYHTPSFLNFYPLGEDIDIIFNLKSTFTEPVLWRKDQHHHRVEQLTLNGLLQALQSPCIIEGESGKGKSTLLQRIAMLWGSGKCKALTKFKFVFFLRLSRAQGGLFETLCDQLLDIPGTIRKQTFMAMLLKLRQRVLFLLDGYNEFKPQNCPEIEALIKENHRFKNMVIVTTTTECLRHIRQFGALTAEVGDMTEDSAQALIREVLIKELAEGLLLQIQKSRCLRNLMKTPLFVVITCAIQMGESEFHSHTQTTLFHTFYDLLIQKNKHKHKGVAASDFIRSLDHCGDLALEGVFSHKFDFELQDVSSVNEDVLLTTGLLCKYTAQRFKPKYKFFHKSFQEYTAGRRLSSLLTSHEPEEVTKGNGYLQKMVSISDITSTYSSLLRYTCGSSVEATRAVMKHLAAVYQHGCLLGLSIAKRPLWRQESLQSVKNTTEQEILKAININSFVECGIHLYQESTSKSALSQEFEAFFQGKSLYINSGNIPDYLFDFFEHLPNCASALDFIKLDFYGGAMASWEKAAEDTGGIHMEEAPETYIPSRAVSLFFNWKQEFRTLEVTLRDFSKLNKQDIRYLGKIFSSATSLRLQIKRCAGVAGSLSLVLSTCKNIYSLMVEASPLTIEDERHITSVTNLKTLSIHDLQNQRLPGGLTDSLGNLKNLTKLIMDNIKMNEEDAIKLAEGLKNLKKMCLFHLTHLSDIGEGMDYIVKSLSSEPCDLEEIQLVSCCLSANAVKILAQNLHNLVKLSILDLSENYLEKDGNEALHELIDRMNVLEQLTALMLPWGCDVQGSLSSLLKHLEEVPQLVKLGLKNWRLTDTEIRILGAFFGKNPLKNFQQLNLAGNRVSSDGWLAFMGVFENLKQLVFFDFSTKEFLPDPALVRKLSQVLSKLTFLQEARLVGWQFDDDDLSVITGAFKLVTA
notes: Endogenous protein of human RPE cells and of human donor eyes
binding result [3]: binds
